Here are results for three molecules from patent publication US20250092086A1, “CELASTROL SALTS, CRYSTALLINE FORMS, AND USES THEREOF” (ERX Pharmaceuticals Inc., priority 2022, published 2025).

What all share (assay type): physicochemical
Data set [1] can be described thus: Hygroscopicity (DVS), water sorption/desorption at 37° C. The settings on record: for DVS (hygroscopicity): water sorption/desorption isotherms at 37° C., 0-95% RH. The protocol:
The hygroscopicity experiments were carried out with a DVS Intrinsic from S.M.S. This technique is designed to accurately measure a sample's change in mass as it sorbs precisely controlled concentrations of water vapors in an air carrier gas. The method used for DVS experiments (at 37° C.) is summarized below. • Equilibrating 10 min at 50% RH • Decreasing to 0% RH in 60 min • Equilibrating 10 min at 0% RH • Increasing to 95% RH in 280 min • Equilibrating 10 min at 95% RH • Decreasing to 50% RH in 100 min • Equilibrating 20 min at 50% RH
The hygroscopic experiments were carried out with a DVS Intrinsic from S.M.S. This technique is designed to accurately measure a sample's change in mass as it sorbs precisely controlled concentrations of water vapors in an air carrier gas. All the methods used for DVS experiments are summarized below. It should be noticed that the temperature and relative humidity (RH) are pre-set according to the initial temperature and RH.
• Equilibrating 120 min at 50% RH • Decreasing to 0% RH in 60 min • Equilibrating 150 min at 0% RH • Increasing to 95% RH in 200 min • Equilibrating 360 min at 95% RH • Decreasing to 50% RH in 100 min • Equilibrating 150 min at 50% RH
The hygroscopicity experiments were carried out with a DVS Intrinsic from S.M.S. This technique is designed to accurately measure a sample's change in mass as it sorbs precisely controlled concentrations of water vapors in an air carrier gas. All the methods used for DVS experiments are summarized below, and it should be noticed that the temperature and relative humidity (RH) are pre-set according to the initial temperature and RH.
The hygroscopicity experiments were carried out with a DVS Intrinsic from S.M.S. This technique is designed to accurately measure a sample's change in mass as it sorbs precisely controlled concentrations of water vapors in an air carrier gas. All the methods used for DVS experiments are summarized below. It should be noticed that the temperature and relative humidity (RH) are pre-set according to the initial temperature and RH.

Data set [2] is described as follows: XRPD under temperature and relative humidity. Particulars: for XRPD under temperature: impact / new crystalline phase: 25 to 100° C., RH set at 30%; for XRPD under relative humidity: impact / new crystalline phase: RH 10 to 80-90% at 40° C.; for Physical stability under the conditions tested (temperature and RH): XRPD, 25-100° C. and 10-90% RH at 40° C. The protocol:
Method 1: influence of temperature at ambient RH. RH was set at 30% in order to simulate a RH near from the ambient RH, and the temperature studied were 25-[…]-100° C.
Method 2: influence on RH at 40° C. The RH studied was at 10-30-80%.
These experiments studied the influence of temperature at ambient RH. RH was wet at 30% in order to simulate a RH near from the ambient RH, and the temperatures studied were 25-50-100° C.
These experiments studied the influence on RH at 40° C. The RH studied were 10-30-88%.
Using Method 1, the influence of temperature at ambient RH was studied. RH was set at 30% in order to simulate a RH near from the ambient RH, and the temperatures studied were 25-50-100° C. FIG. 24 provides the XRPD pattern representing the influence of temperature on Compound 1 Form I.
Using Method 2, the influence on RH at 40° C. was studied. The RH studied were 10-30-90%.
Using Method 1, the influence of temperature at ambient RH was studied. RH was set at 30% in order to simulate a RH near from the ambient RH. Temperature studied: 25-50-100° C.
Using Method 2, the influence on RH at 40° C. was studied at 10-30-90%.

Data set [3] can be described thus: Solubility study of Compound I Form I in various solvents and temperatures. The protocol: The solubility of Compound 1 Form I was assessed in order to identify potential crystallization media. Compound 1 Form I was found very soluble in dichoromethane even at low temperature (10° C.).
Data set [4] in a line: Solubility in water at 37° C. From the text: This compound can be considered as very slightly soluble (<1 g/L).

The structures appear in SMILES notation. In brackets after ≈: the same amount, converted by molar mass. Entries after “also recorded” stand apart in the source; their conditions may differ. Where two headings read alike, the source gives them in different places. Bounds are passed on as bounds.

Consider `CC1=C(O)C(=O)C=C2C1=CC=C1[C@@]2(C)CC[C@@]2(C)[C@@H]3C[C@](C)(C(=O)O)CC[C@]3(C)CC[C@]12C` [Compound 1 Form I, 3-hydroxy-9β,13α-dimethyl-2-oxo-24,25,26-trinoroleana-1(10),3,5,7-tetraen-29-oic acid], for which the “Hysteresis observed with the final mass at 50% RH” value in data set [1] (DVS, 37° C.) is reported as “No hysteresis; also recorded: slight hysteresis”. The “Water uptake, water sorption/desorption isotherms” value in data set [1] (DVS, 37° C.) is given as less than 0.2 % w/w. Besides, the “DVS (hygroscopicity)” value is recorded as “non hygroscopic; also recorded: non-hygroscopic” in data set [1], “Non-hygroscopic” in data set [1] (listed as Compound I Form I) and “Not hygroscopic” in data set [1] (listed as FI). Moreover, the “XRPD under temperature: impact / new crystalline phase” value in data set [2] was “No impact”; in data set [2] (listed as Compound I Form I) it was “no new crystalline phase until 100 °C”; in data set [2] (listed as FI), “=>No new crystalline”. The figures for the “XRPD under relative humidity: impact / new crystalline phase” value in data set [2], in data set [2] (listed as Compound I Form I) and in data set [2] (listed as FI) were “No impact”, “no new crystalline phase from 10 to 90% RH” and “=>No new crystalline”, respectively. Also, the “Physical stability under the conditions tested (temperature and RH)” value (shortened to “Physical stability”) in data set [2] is “good stability”. The solubility in data set [3] (CH2Cl2/EtOH 20/80, organic solvent or mixture, CH2Cl2-2/EtOH 20/80, 40° C.) is 31 to 40 mg/mL (≈ 68.8 to 88.8 mM); in data set [3] (aqueous with cosolvent or surfactant or cyclodextrin, MeOH/Water 67/33/V, 10° C.), less than 2 mg/mL; in data set [3] (aqueous with cosolvent or surfactant or cyclodextrin, Water/EtOH 50/50, 10° C.) it was less than 11 mg/mL; in data set [3] (aqueous with cosolvent or surfactant or cyclodextrin, Water/EtOH 50/50, 25° C.) it was less than 11 mg/mL; in data set [3] (methanol, organic solvent or mixture, MeOH, 10° C.) it was 8 to 11 mg/mL (≈ 17.8 to 24.4 mM); in data set [3] (methanol, organic solvent or mixture, MeOH, 50° C.) it was approximately 36 mg/mL (≈ 79.9 mM). In addition, the solubility in data set [3] (organic solvent or mixture, CH2Cl2, 25° C.) was more than 120 mg/mL; in data set [3] (organic solvent or mixture, CH2Cl2/EtOH 10/90, 10° C.) it was 11 to 15 mg/mL (≈ 24.4 to 33.3 mM); in data set [3] (organic solvent or mixture, CH2Cl2/EtOH 10/90, 40° C.), less than 25 mg/mL; in data set [3] (organic solvent or mixture, CH2Cl2/EtOH 30/70, 10° C.), 25 to 45 mg/mL (≈ 55.5 to 99.9 mM); in data set [3] (organic solvent or mixture, CH2Cl2/EtOH 50/50, 10° C.) it was more than 40 mg/mL; in data set [3] (organic solvent or mixture, CH2Cl2/EtOH 70/30, 10° C.) it was more than 40 mg/mL. The solubility in data set [3] (organic solvent or mixture, CH2Cl2/EtOH 90/10, 10° C.) was more than 40 mg/mL; in data set [3] (organic solvent or mixture, Ethanol, 25° C.), 9 to 14 mg/mL (≈ 20 to 31.1 mM); in data set [3] (organic solvent or mixture, Ethyl acetate, 10° C.), 20 to 40 mg/mL (≈ 44.4 to 88.8 mM); in data set [3] (organic solvent or mixture, Propan-2-ol, 10° C.), less than 25 mg/mL; in data set [3] (organic solvent or mixture, Propan-2-ol, 50° C.) it was 25 to 40 mg/mL (≈ 55.5 to 88.8 mM). Further, the “Solubility in dichoromethane” value in data set [3] (dichoromethane, even at low temperature (10° C.)) was “very soluble”. In addition, the “Solubility in dichoromethane/ethanol 50:50 (V/V) at high temperature” value in data set [3] (dichoromethane/ethanol 50:50 (V/V), high temperature) is reported as “relatively good solubility”. Moreover, the “Solubility in dichoromethane/ethanol 50:50 (V/V) at low temperature” value in data set [3] (dichoromethane/ethanol 50:50 (V/V), low temperature) is “low solubility”.

As to `CC1=C(O)C(=O)C=C2C1=CC=C1[C@@]2(C)CC[C@@]2(C)[C@@H]3C[C@](C)(C(=O)O)CC[C@]3(C)CC[C@]12C` [Compound 1 Form II, 3-hydroxy-9β,13α-dimethyl-2-oxo-24,25,26-trinoroleana-1(10),3,5,7-tetraen-29-oic acid], in data set [1] (DVS, 37° C.), the “Hysteresis observed with the final mass at 50% RH” value is recorded as “No hysteresis”; the “Mass decrease as the RH was lowered to 0%” value is recorded as approximately 0.08 % w/w; the “Mass increase as the RH was increased to 95%” value is “about 0.13 % w/w”; the “Water uptake, water sorption/desorption isotherms” value was less than 0.2 % w/w. Further, the “DVS (hygroscopicity)” value in data set [1] was “non-hygroscopic”. Also, the “DVS (hygroscopicity)” value in data set [1] (listed as FII) is “Not hygroscopic”. In data set [2], the “XRPD under temperature: impact / new crystalline phase” value is reported as “No impact”; the “XRPD under relative humidity: impact / new crystalline phase” value is given as “No impact”; the “Physical stability” value was “good stability”. In data set [2] (listed as FII), the “XRPD under temperature: impact / new crystalline phase” value is recorded as “=>No new crystalline” and the “XRPD under relative humidity: impact / new crystalline phase” value is recorded as “=>No new crystalline”.

Take `CC1=C(O)C(=O)C=C2C1=CC=C1[C@@]2(C)CC[C@@]2(C)[C@@H]3C[C@](C)(C(=O)O)CC[C@]3(C)CC[C@]12C` [Compound 1, (2R,4aS,6aS,12bR,14aS,14bR)-10-hydroxy-2,4a,6a,9,12b,14a-hexamethyl-11-oxo-1,2,3,4,4a,5,6,6a,11,12b,13,14,14a,14b-tetradecahydropicene-2-carboxylic acid]: the “Solubility in water at 37° C.” value in data set [4] is listed as “below 1 g/L”; in data set [4] (listed as Free compound), “(s < 1 g/L)”. In data set [4] (37 °C), this molecule showed a solubility of less than 1 mg/mL. Besides, the “Hysteresis with the final mass at 50% RH” value in data set [1] (DVS, 37° C.) is approximately 0.1 wt-%. Moreover, the “Mass decrease as the RH was lowered to 0%” value in data set [1] (DVS, 37° C.) is listed as approximately 0.1 % w/w. In data set [1] (DVS, 37° C.), the “Mass increase as the RH was increased to 95%” value was approximately 0.2 % w/w. For the same molecule, in data set [1] (DVS, 37° C.), the “Water uptake, water sorption/desorption isotherms” value is reported as less than 0.2 wt-%. The “DVS (hygroscopicity)” value in data set [1] is “non-hygroscopic”; in data set [1] (listed as Free compound) it was “Non hygroscopic”; in data set [1] (listed as free Celastrol) it was “Non-hygroscopic”; in data set [1] (listed as free compound), “non hygroscopic”. Further, the “XRPD under temperature: impact / new crystalline phase” value in data set [2] (listed as Free compound) is “=>No new crystalline phase until”; in data set [2] (listed as free Celastrol), “no new crystalline phase until 100 °C”; in data set [2] (listed as free compound), “No impact”. Moreover, the “XRPD under relative humidity: impact / new crystalline phase” value in data set [2] (listed as Free compound) was “=>No new crystalline phase from”; in data set [2] (listed as free Celastrol) it was “no new crystalline phase from 10 to 90% RH”; in data set [2] (listed as free compound) it was “physically stable under relative humidity; also recorded: No impact”. Further, the “Physical stability” value in data set [2] (listed as free compound) is reported as “physically stable”.

What is called solubility is how much of the substance goes into solution per volume.
